Source: patent publication US20260315564A1, “THE USE OF TP3 (THYMOPENTIN ANALOG) BY INCREASING THE ACTIVITY AND NUMBER OF T-CELLS INVOLVED IN THE DEFENSE MECHANISM OF THE IMMUNE SYSTEM OF MAMMALS, FOR THE PREVENTION OR TREATMENT OF DISEASES TO EXTEND THE AVERAGE LIFESPAN” (priority 2023, published 2026)
Marks after values point to notes of the source that are not given here. Residues, ends and D or L forms follow the SMILES beside them.

Key:
[1] = tested on: plaque-forming cells (PFC); experiment: Number of plaque-forming cells (PFC) in Balb/c nu/nu mice; assay type: in vivo; conditions: for number of plaque-forming cells (PFC): n = 8/group, control 55.7 (TP5), 53.0 (TP3)
Method: (§1) 1.3./Determination of the number of plaque-forming cells (PFC) (using rat spleen cells) The chopped splenocytes were placed in a culture medium (Parker 199) and then shaken with a shaker for 1 minute. The cells were suctioned from the surface of the rapidly settling tissue debris. Red blood cells were removed osmotically. Cell suspensions were adjusted to 107/ml. The cell suspensions were mixed with a 15% BVVT cell suspension in a ratio of 2:1. PFC was determined with the mixture using a modified chamber technique according to Channingham et al., 1966). Before filling the chamber, 50 μl of fresh diluted guinea pig serum (1:20) was added. The chambers (2-2/slide) were incubated (370C 45′) after sealing with paraffin, the formed plaques were counted under a microscope (at 400× magnification) within 2 hours Marker tests related to the rejection reaction of an adult thymus-depleted mouse skin graft 1.4./Rejection of skin transplants in nude mice after treatment with TP fragments (Snell et al., Transplantation 5, 492, 1967).
Mice were treated for 4 weeks 3 times a week (every other day) with TP fragments (10-9, 10-8, 10-7//10-3, 10-2, 10-1 M/animal ip. (Veys et al., 1983) at the end of the treatments ([…]), the mice were immunized (with 0.5 ml 1% BVVT suspension ip. The immune response was expressed in antibody titers as above).

[2] = tested on: PFC; experiment: PFC cell count in aged mice; assay type: in vivo, aged mice (Balb/c); conditions: first value column under head 'PFC IgM/logx^2'; aged mice 18 months old; n = 8/group; young control 6.3, aged 3.7
Method: as §1
TP effect on antibody production and PFC cell count in aged mice (Balb/c)

[3] = tested on: Anti-SRBC-Ab (IgM); experiment: Anti-SRBC-Ab titer (IgM) in newborn rats after 9x treatment (hemagglutination); assay type: in vivo, Hannover Wistar rats (newborn); conditions: 9x (3x3 weeks/ip), n = 12, control 6.3 (TP5), 5.2 (TP3)
Method: Rats (Hannover Wistar) were treated (i.p.) within 6-12 hours after birth. Treatments after birth in a single session or in another examination • on the 7th day after the first treatment; • another group was vaccinated 3 times a week after the first day of […]. treatment • in a subsequent group treated over three weeks (9× in total) (10-3,10-5,10-7//10-9, 10-11,10-12, 10-13 M/animal, i.p). • in the fourth test series, the animals were treated with TP fragments at 0, 1, 2, 4, or 5 days of age. The rats were unanimously immunized on the 14th day after birth (1% BVVT with 0.5 ml cell suspension, i.p.). Immune responses were measured after 7 days on day 21 of the experiment.
Rats (Hannover Wistar) were treated (i.p.) within 6-12 hours after birth. Treatments after birth in a single session or in another examination • on the 7th day after the first treatment; • another group was vaccinated 3 times a week after the first day of treatment. • in a subsequent group, the treatments took place over three weeks (9× in total) (10-3,10-5,10-7//10-9, 10-11,10-12,10-13 M/animal, i.p.). • in the fourth test series, the animals were treated with TP fragments at 0, 1, 2, 4, or 5 days of age. The rats were randomly immunized on the 14th day after birth (1% BVVT with 0.5 ml cell suspension, i.p.). Immune responses were measured after 7 days on day 21 of the experiment. 1.2. Determination of anti-BVVT Ab titers (from rat blood samples ex vivo) • with the haemagglutination method (Takátsy and Fürész, 1955) on 96-well plates (Flow). 50 ul of 0.9% NaCl solution was added to each well. The sera (50 μl) were diluted by half dilution in 12 steps, mixed with 25 pμl 2% BVVT cell suspension, and incubated (1 hour at 37 °C). The hemagglutination titers of the sera are determined. Values expressed in logarithmic values refer to total agglutination.

[4] = tested on: Active E-rosette forming cells (human lymphocytes); experiment: Active E-rosette forming cells; assay type: cell-based; conditions: control 6.3 (TP5), 5.2 (TP3)
Method: The test was carried out according to the method of (Wybran and Fundenberg 1973). 107/ml lymphocytes from either healthy blood donors or autoimmune patients were included in the tests. The effect of the substances was tested in the presence of 100 μl of […]. test compound. After an incubation period, 100 μul of cell suspension was placed on a glass slide, fixed for 3 minutes (with 50 μl of 3% glutaraldehyde solution), and stored in a humid chamber until evaluation.

[5] = tested on: DTH reaction (PPD); experiment: Delayed-type hypersensitivity (DTH) reaction in guinea pigs; assay type: in vivo; conditions: n = 12/group, PPD 217.9
[6] = tested on: peritoneal macrophages; experiment: Phagocytic function of peritoneal macrophages ex vivo in CFLP outbred mice (CY-immunosuppressed); conditions: for macrophage phagocytosis ex vivo: CY-treated mice, n = 15, untreated control 194.5, CY 111.5
Text: 6.2./Examination of the Effect on the Phagocytic Function of Peritoneal Macrophages CFLP Outbred in Mice
Macrophage phagocytosis ex vivo (X=yeast/100 cells)

[7] = High-dose / long-term tolerability in animals; assay type: in vivo; conditions: 12 months of use, in words
[8] = 12-24 months, Friedmann 1985, in words; cited from earlier work
[9] = tested on: tumour patients (metastatic melanoma); conditions: 26 studies, 2,736 patients, in words, cited from earlier work

CC(C)[C@H](NC(=O)[C@H](CC(=O)O)NC(=O)[C@H](CCCCN)NC(=O)[C@@H](N)CCCN=C(N)N)C(=O)N[C@@H](Cc1ccc(O)cc1)C(=O)O [TP5] (H-RKDVY-OH)
number of plaque-forming cells (PFC) ([1]; 10^-1 M/mouse (M/eger)): 76.5* | number of plaque-forming cells (PFC) ([1]; 10^-2 M/mouse (M/eger)): 73.0* | number of plaque-forming cells (PFC) ([1]; 10^-3 M/mouse (M/eger)): 67.4 | increase in number of PFC cells ([1]; 10^-3 M/mouse/i.p.): 35% | number of plaque-forming cells (PFC) ([1]; 10^-6 M/mouse (M/eger)): 72.5* | number of plaque-forming cells (PFC) ([1]; 10^-7 M/mouse (M/eger)): 71.0* | number of plaque-forming cells (PFC) ([1]; 10^-8 M/mouse (M/eger)): 9.5 | PFC [2]: 6.1* | Anti-SRBC-Ab titer (IgM) ([3]; 10^-3 M/animal): 7.3 2 log | Anti-SRBC-Ab titer (IgM) ([3]; 10^-4 M/animal): 8.2* 2 log | Anti-SRBC-Ab titer (IgM) ([3]; 10^-5 M/animal): 8.6* 2 log | Anti-SRBC-Ab titer (IgM) ([3]; 10^-6 M/animal): 7.5 2 log | Anti-SRBC-Ab titer (IgM) ([3]; 10^-9 M/animal): 7.2 2 log | Anti-SRBC-Ab titer (IgM) ([3]; 10^-11 M/animal): 10.7* 2 log | Anti-SRBC-Ab titer (IgM) ([3]; 10^-13 M/animal): 7.9* 2 log | Active E-rosette forming cells ([4]; 10^-5 mol/l): 8.6* | Active E-rosette forming cells ([4]; 10^-7 mol/l): 7.5 | Active E-rosette forming cells ([4]; 10^-9 mol/l): 7.2 | Active E-rosette forming cells ([4]; 10^-11 mol/l): 10.7* | Active E-rosette forming cells ([4]; 10^-13 mol/l): 7.9* | DTH reaction, skin redness (bőrpir) ([5]; 0.1 mg/kg/s.c.): 127.7* mm/π | DTH reaction, skin redness (bőrpir) ([5]; 1.0 mg/kg/s.c.): 158.1 mm/π | DTH reaction, skin redness (bőrpir) ([5]; 20.0 mg/kg/s.c.): 194.6 mm/π | phagocytic activity of macrophages ([6]; CY immunosuppression, 1.0 mg/kg/sc (TP3), in words): ineffective | macrophage phagocytosis ex vivo ([6]; TP dose 0.1 (mg/kg/sc)): 149.6 yeast/100 cells | macrophage phagocytosis ex vivo ([6]; TP dose 1.0 (mg/kg/sc)): 123.1 yeast/100 cells | macrophage phagocytosis ex vivo ([6]; TP dose 10.0 (mg/kg/sc)): 95.6 yeast/100 cells | side effects [7]: did not cause any signs of side effects | safety in patients [8]: well-used, safe drug candidate | severe infections ([9]; in parallel with radiation or chemotherapy): promising results in reducing severe infections | number of survivors [9]: not significantly affected
